Measurements as given in US11104682B2, “Salts of TAM inhibitors” (Incyte Corporation, priority 2017, dated 2021).
Counter-ions that a name gives are not always drawn.

What was measured:
Tyro3 = Tyro3 (Homo sapiens (Human), UniProt Q06418); assay: TAM Enzymatic Assay (HTRF), Tyro3; assay type: biochemical; conditions: 0.366 nM Tyro3, ATP
Procedure: (§1) The kinase assay buffer contained 50 mM HEPES, pH7.5, 10 mM MgCl2, 1 mM EGTA, 0.01% NP-40 and 2 mM DTT. 0.1 ul test compounds dissolved in DMSO were transferred from compound plates to white 384-well assay plates (Greiner […] plates). The final concentration of DMSO was 1.25%. Enzyme solutions of 5.1 nM phosphor-Axl, or 0.0625 nM c-Mer (Carna Biosciences, 08-108), or 0.366 nM Tyro3 (Life Technologies, PR7480A) were prepared in assay buffer. A 1 mM stock solution of peptide substrate Biotin-[…]-amide SEQ ID NO: 1 (Quality Controlled Biochemicals, MA) dissolved in DMSO was diluted to 1 uM in assay buffer containing 2000 uM ATP. 4 ul enzyme solution (or assay buffer for the enzyme blank) was added to the appropriate wells in each plate, and then 4 ul/well substrate solution was added to initiate the reaction. The plate was protected from light and incubated at room temperature for 60 min. […] The plate was incubated for 1 h at room temperature, and HTRF (homogenous time resolved fluorescence) signal was measured on a PHERAstar FS plate reader (BMG labtech). Percentage of inhibition was calculated for each concentration and IC50 value was generated from curve fitting with GraphPad Prism software.

Axl = Axl (Homo sapiens (Human), UniProt P30530); assay: TAM Enzymatic Assay (HTRF), phosphor-Axl; assay type: biochemical; conditions: 5.1 nM phosphor-Axl, ATP
Sequence of Axl (P30530 26-894): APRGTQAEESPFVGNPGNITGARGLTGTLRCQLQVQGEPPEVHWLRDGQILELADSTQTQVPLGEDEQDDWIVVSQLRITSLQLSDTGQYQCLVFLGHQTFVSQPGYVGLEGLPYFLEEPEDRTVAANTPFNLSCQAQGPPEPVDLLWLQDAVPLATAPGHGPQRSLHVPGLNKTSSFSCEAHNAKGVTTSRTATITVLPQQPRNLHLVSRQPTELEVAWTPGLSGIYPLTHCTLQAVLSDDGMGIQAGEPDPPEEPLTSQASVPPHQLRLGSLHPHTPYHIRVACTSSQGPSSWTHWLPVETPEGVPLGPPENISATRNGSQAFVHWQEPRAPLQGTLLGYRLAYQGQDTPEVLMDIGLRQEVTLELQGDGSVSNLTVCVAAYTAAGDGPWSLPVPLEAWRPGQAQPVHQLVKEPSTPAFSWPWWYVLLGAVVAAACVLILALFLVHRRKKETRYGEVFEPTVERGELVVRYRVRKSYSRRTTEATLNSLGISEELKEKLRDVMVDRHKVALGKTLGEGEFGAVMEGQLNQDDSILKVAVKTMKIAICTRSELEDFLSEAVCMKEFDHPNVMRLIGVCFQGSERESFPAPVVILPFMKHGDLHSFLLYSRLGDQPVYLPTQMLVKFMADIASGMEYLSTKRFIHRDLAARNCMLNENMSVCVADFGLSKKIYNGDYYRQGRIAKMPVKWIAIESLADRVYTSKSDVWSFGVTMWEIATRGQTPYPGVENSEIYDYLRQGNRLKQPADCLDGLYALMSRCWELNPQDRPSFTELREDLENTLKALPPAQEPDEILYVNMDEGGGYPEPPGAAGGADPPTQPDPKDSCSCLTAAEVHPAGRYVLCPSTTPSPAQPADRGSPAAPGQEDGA
Procedure: Autophosphorylation of Axl was carried out by incubating the recombinant Axl protein (Life Technologies, PV4275) in buffer containing 50 mM Tris, pH7.5, 0.2 mg/ml Axl, 5 mM ATP, 20 mM MgCl2 and 2 mM DTT at room temperature for 1 hour.
as §1, with “reaction.” for “reaction. The plate was protected from light and incubated at room temperature for 60 min.”

c-Mer = c-Mer (Homo sapiens (Human), UniProt Q12866); assay: TAM Enzymatic Assay (HTRF), c-Mer; assay type: biochemical; conditions: 0.0625 nM c-Mer, ATP
Sequence of c-Mer (Q12866 21-999): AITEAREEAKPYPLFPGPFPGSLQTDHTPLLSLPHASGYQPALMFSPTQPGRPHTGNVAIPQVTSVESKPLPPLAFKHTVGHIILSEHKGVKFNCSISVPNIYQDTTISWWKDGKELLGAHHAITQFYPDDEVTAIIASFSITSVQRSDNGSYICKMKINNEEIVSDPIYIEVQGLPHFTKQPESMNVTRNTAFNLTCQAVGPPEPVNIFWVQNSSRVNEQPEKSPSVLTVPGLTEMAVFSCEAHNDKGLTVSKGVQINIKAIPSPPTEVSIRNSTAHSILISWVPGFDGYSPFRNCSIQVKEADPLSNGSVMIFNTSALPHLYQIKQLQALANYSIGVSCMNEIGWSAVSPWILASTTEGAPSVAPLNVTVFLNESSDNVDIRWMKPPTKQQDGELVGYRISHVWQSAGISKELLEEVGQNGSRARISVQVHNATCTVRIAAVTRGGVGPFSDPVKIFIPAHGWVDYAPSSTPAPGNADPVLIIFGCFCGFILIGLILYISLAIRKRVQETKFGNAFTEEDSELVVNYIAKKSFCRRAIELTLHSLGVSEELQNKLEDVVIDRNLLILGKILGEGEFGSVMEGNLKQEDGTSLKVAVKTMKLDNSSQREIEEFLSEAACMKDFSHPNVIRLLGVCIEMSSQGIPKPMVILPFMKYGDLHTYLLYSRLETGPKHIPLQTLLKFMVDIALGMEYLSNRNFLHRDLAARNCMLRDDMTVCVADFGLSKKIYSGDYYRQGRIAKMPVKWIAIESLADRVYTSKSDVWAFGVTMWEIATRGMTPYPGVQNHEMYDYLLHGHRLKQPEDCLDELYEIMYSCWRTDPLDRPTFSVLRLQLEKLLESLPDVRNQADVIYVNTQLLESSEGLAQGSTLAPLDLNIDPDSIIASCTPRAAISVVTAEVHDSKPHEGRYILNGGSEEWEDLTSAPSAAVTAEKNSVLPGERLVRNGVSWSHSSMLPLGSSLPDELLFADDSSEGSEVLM
Procedure: as §1

[1] = Solubility of Compound I maleate salt in solvents (saturated solution, HPLC); assay type: physicochemical; conditions: thermodynamic from solid; for solubility at 48 h: 25 °C, 25±1° C.; for solubility at 24 h: 50 °C, 50±1° C.
[2] = organic solvent or mixture, solvent 1,4-Dioxane
[3] = organic solvent or mixture, solvent 1-Propanol
[4] = organic solvent or mixture, solvent 2-Methoxyethanol
[5] = organic solvent or mixture, solvent Acetone
[6] = organic solvent or mixture, solvent Chloroform
[7] = organic solvent or mixture, solvent DMF
[8] = organic solvent or mixture, solvent DMSO
[9] = organic solvent or mixture, solvent Dichloromethane
[10] = organic solvent or mixture, solvent EtOAc
[11] = organic solvent or mixture, solvent EtOH
[12] = organic solvent or mixture, solvent Ethyl formate
[13] = organic solvent or mixture, solvent IPA
[14] = organic solvent or mixture, solvent IPAc
[15] = organic solvent or mixture, solvent MEK
[16] = organic solvent or mixture, solvent MIBK
[17] = organic solvent or mixture, solvent MTBE
[18] = organic solvent or mixture, solvent MeCN
[19] = organic solvent or mixture, solvent Methanol
[20] = organic solvent or mixture, solvent THF
[21] = organic solvent or mixture, solvent Toluene
[22] = organic solvent or mixture, solvent n-BuOH

Sequence of Tyro3 (Q06418 41-890): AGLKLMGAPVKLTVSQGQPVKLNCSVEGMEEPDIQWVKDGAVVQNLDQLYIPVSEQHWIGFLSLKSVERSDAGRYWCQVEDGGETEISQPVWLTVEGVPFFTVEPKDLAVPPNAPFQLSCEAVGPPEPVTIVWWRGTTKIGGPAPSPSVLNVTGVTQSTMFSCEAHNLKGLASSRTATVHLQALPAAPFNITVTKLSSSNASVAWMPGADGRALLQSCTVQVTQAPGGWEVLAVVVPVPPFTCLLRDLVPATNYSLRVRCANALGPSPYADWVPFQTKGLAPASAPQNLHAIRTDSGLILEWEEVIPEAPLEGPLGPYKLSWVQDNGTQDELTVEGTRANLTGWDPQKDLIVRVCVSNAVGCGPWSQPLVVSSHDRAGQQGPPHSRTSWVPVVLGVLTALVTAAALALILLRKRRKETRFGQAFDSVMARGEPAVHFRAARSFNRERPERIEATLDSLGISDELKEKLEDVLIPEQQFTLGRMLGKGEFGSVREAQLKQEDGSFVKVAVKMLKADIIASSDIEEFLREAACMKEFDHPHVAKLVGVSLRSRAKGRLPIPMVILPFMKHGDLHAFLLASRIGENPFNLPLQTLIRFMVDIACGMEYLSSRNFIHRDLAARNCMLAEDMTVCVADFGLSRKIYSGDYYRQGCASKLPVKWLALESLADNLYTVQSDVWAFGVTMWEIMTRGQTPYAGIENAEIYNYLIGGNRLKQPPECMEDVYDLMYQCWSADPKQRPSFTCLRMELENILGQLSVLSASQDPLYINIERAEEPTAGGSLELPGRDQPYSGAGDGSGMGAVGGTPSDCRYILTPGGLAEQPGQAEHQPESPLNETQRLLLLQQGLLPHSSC

Question: Which results are given for `CC(C)C(=O)N1CCC(c2cc(-c3ccc(NC(=O)c4cn(C(C)C)c(=O)n(-c5ccccn5)c4=O)cc3)c3c(N)ncnn23)CC1` [Compound I maleate salt, N-(4-(4-Amino-7-(1-isobutyrylpiperidin-4-yl)pyrrolo[1,2-f][1,2,4]triazin-5-yl)phenyl)-1-isopropyl-2,4-dioxo-3-(pyridin-2-yl)-1,2,3,4-tetrahydropyrimidine-5-carboxamide maleate]?
Answer: IC50 (Tyro3): 10 to 100 nM; IC50 (Axl): ≤ 5 nM; IC50 (c-Mer): ≤ 5 nM; solubility at 48 h [1, 2]: 2310 µg/mL; solubility at 48 h [1, 3]: 440 µg/mL; solubility at 48 h ([1]; organic solvent or mixture, solvent 2% DCM/98% MeOH (V/V)): 1460 µg/mL; solubility at 48 h [1, 4]: 5960 µg/mL; solubility at 48 h ([1]; organic solvent or mixture, solvent 10% DCM/90% MeOH (V/V)): 1880 µg/mL; solubility at 48 h [1, 5]: 1680 µg/mL; solubility at 48 h [1, 6]: 6120 µg/mL; solubility at 48 h ([1]; organic solvent or mixture, solvent DCM/MeOH(2/1)): > 50000 µg/mL; solubility at 48 h [1, 7]: > 50000 µg/mL; solubility at 48 h [1, 8]: > 50000 µg/mL; solubility at 48 h [1, 9]: 24400 µg/mL; solubility at 48 h [1, 10]: 180 µg/mL; solubility at 48 h [1, 11]: 650 µg/mL; solubility at 48 h [1, 12]: 680 µg/mL; solubility at 48 h [1, 13]: 160 µg/mL; solubility at 48 h [1, 14]: 270 µg/mL; solubility at 48 h [1, 15]: 280 µg/mL; solubility at 48 h [1, 16]: 430 µg/mL; solubility at 48 h [1, 17]: 80 µg/mL; solubility at 48 h [1, 18]: 280 µg/mL; solubility at 48 h [1, 19]: 1640 µg/mL; solubility at 48 h [1, 20]: 920 µg/mL; solubility at 48 h [1, 21]: 180 µg/mL; solubility at 48 h [1, 22]: 210 µg/mL; solubility at 48 h ([1]; solvent Water): 20 µg/mL; solubility at 24 h [1, 2]: 4620 µg/mL; solubility at 24 h [1, 3]: 1310 µg/mL; solubility at 24 h [1, 4]: 14800 µg/mL; solubility at 24 h [1, 5]: 3050 µg/mL; solubility at 24 h [1, 6]: 13700 µg/mL; solubility at 24 h [1, 7]: > 50000 µg/mL; solubility at 24 h [1, 8]: > 50000 µg/mL; solubility at 24 h [1, 9]: 33700 µg/mL; solubility at 24 h [1, 10]: 400 µg/mL; solubility at 24 h [1, 11]: 1930 µg/mL; solubility at 24 h [1, 12]: 990 µg/mL; solubility at 24 h [1, 13]: 680 µg/mL; solubility at 24 h [1, 14]: 330 µg/mL; solubility at 24 h [1, 15]: 2190 µg/mL; solubility at 24 h [1, 16]: 740 µg/mL; solubility at 24 h [1, 17]: 100 µg/mL; solubility at 24 h [1, 18]: 680 µg/mL; solubility at 24 h [1, 19]: 3090 µg/mL; solubility at 24 h [1, 20]: 1630 µg/mL; solubility at 24 h [1, 21]: 200 µg/mL; solubility at 24 h [1, 22]: 1100 µg/mL; solubility at 24 h ([1]; solvent Water): 40 µg/mL

Question: Which results are given for `CC(C)C(=O)N1CCC(c2cc(-c3ccc(NC(=O)c4cn(C(C)C)c(=O)n(-c5ccccc5)c4=O)cc3)c3c(N)ncnn23)CC1` [Compound II hemi-sulfuric acid salt, N-(4-(4-Amino-7-(1-isobutyrylpiperidin-4-yl)pyrrolo[1,2-f][1,2,4]triazin-5-yl)phenyl)-1-isopropyl-2,4-dioxo-3-phenyl-1,2,3,4-tetrahydropyrimidine-5-carboxamide hemisulfate]?
Answer: IC50 (Tyro3): 10 to 100 nM; IC50 (Axl): ≤ 5 nM; IC50 (c-Mer): ≤ 5 nM
